According to patent US20100249017A1, “USE OF CNP-22, ALONE OR IN COMBINATION WITH PHYSALEMIN, AS A THERAPEUTIC AGENT” (priority 2007, published 2010):
Square brackets hold non-standard residues; d marks the D form. Ends that are not written are not given here. pGlu = O=C1CC[C@@H](C(=O)O)N1

Key:
[1] = test system: hepatitis B virus (HBV) ayw strain; assay: HBV experimental assay system, secreted HBV DNA by TaqMan PCR; format: cell-based; settings: 10 micrograms per ml; HepG2-2.2.15 cells; six days
[2] = test system: spleen cells of Ovalbumin-immunized Balb/c mice; assay: Th1/Th2 cytokine profiling assay; format: cell-based, mouse; settings: 10 micrograms per ml; Ovalbumin restimulation; 72 hours
Description: The Balb/c mice (originated in 1923, it is a popular strain and is used in many different research disciplines. Also classified as an inbred from the production of 20 or more successive brother-sister matings, the Balb/c mouse is albino and small in size) were immunized on Days 1, 15, and 29 with Ovalbumin (Ovalbumin is the main protein found in egg white, commonly used to stimulate an immunological reaction in test animals) in PBS (5 micrograms/injection). On day 50, spleens of the mice were harvested (3 weeks after last boost with Ovalbumin). Cells were cultured (2×10^5/well in triplicate) and incubated with culture medium or test peptides—10 micrograms per ml—for 30 min. Thereafter, additional Ovalbumin was added to the cells at 10 micrograms/ml for in vitro restimulation of the cells. 72 hours later, cell supernatants were harvested and assayed using the Becton Dickinson Mouse Th1/Th2 Cytokine CBA Kit.

HUVEC = assay: Endothelial tube formation assay; format: cell-based, human; settings: 10 micrograms per ml, 20 hours
Description: Positive control was vehicle only. […] Raw data were expressed as average tubule lenghs in pixels±standard deviation.

HCMV strain AD169 = assay: HCMV plaque formation assay in MRC-5 cells; settings: 10 micrograms per ml, 7-10 days
Description: Cells were split twic a week 1:2.
Ganciclovir was used as positive control.

RAW 264.7 cells = assay: Phagocytosis assay; settings: 10 micrograms per ml, Fluorescein-labeled Escherichia coli
[3] = test system: Primary Human endothelial cells (HUVEC); assay: Endothelial cell migration assay; format: cell-based; settings: 10 micrograms per ml, 22 hours
Protocol: Thereafter, designated concentration of testing peptides—10 micrograms per ml—was added in duplicate wells.

Substance: Gly-Leu-Ser-Lys-Gly-Cys-Phe-Gly-Leu-Lys-Leu-Asp-Arg-Ile-Gly-Ser-Met-Ser-Gly-Leu-Gly-Cys-OH (GLSKGCFGLKLDRIGSMSGLGC-OH; cysteine pairing not given here) [peptide 1]
- inhibition of HBV replication as compared to the virus control infection [1]: 10.1%
- IFNγ spleen cells; TH1 response (% of control) [2]: 140.2 % of control
- IL-2 spleen cells (% of control) [2]: 52.2 % of control
- IL-4 spleen cells; TH2 response (% of control) [2]: 0.0 % of control
- IL-5 spleen cells; TH2 response (% of control) [2]: 56.3 % of control
- TNF-a spleen cells; TH1 response (% of control) [2]: 111.8 % of control
- inhibition of the tube formation of human endothelial cells (HUVEC): 22%
- inhibition of HCMV plaque formation as compared to the virus control experiment (HCMV strain AD169): did not show any inhibition
- induction of phagocytosis as compared to the virus control experiment (RAW 264.7 cells): 42.9%

Substance: Pyr-Ala-Asp-Pro-Asn-Lys-Phe-Tyr-Gly-Leu-Met-NH2 ([pGlu]ADPNKFYGLM-NH2; SMILES CSCC[C@H](NC(=O)[C@H](CC(C)C)NC(=O)CNC(=O)[C@H](Cc1ccc(O)cc1)NC(=O)[C@H](Cc1ccccc1)NC(=O)[C@H](CCCCN)NC(=O)[C@H](CC(N)=O)NC(=O)[C@@H]1CCCN1C(=O)[C@H](CC(=O)O)NC(=O)[C@H](C)NC(=O)[C@@H]1CCC(=O)N1)C(N)=O) [peptide 2]
- inhibition of HBV replication as compared to the virus control infection [1]: no effect
- IFNγ spleen cells; TH1 response (% of control) [2]: 74.2 % of control
- IL-2 spleen cells (% of control) [2]: 0.0 % of control
- IL-4 spleen cells; TH2 response (% of control) [2]: 0.0 % of control
- IL-5 spleen cells; TH2 response (% of control) [2]: 53.0 % of control
- TNF-a spleen cells; TH1 response (% of control) [2]: 85.7 % of control
- inhibition of the tube formation of human endothelial cells (HUVEC): 6%
- inhibition of HCMV plaque formation as compared to the virus control experiment (HCMV strain AD169): did not show any inhibition
- induction of the migration of human endothelial cells [3]: 15%
- induction of phagocytosis as compared to the virus control experiment (RAW 264.7 cells): did not induce phagocytosis
